From patent US9895450B2, “Anti-wall teichoic antibodies and conjugates” (priority 2013, dated 2018)

Tests used:
[1] = system: MRSA (NRS384 strain of USA300); assay: MIC determinations for intracellular bacteria (inside mouse peritoneal macrophages); format: cell-based, S. aureus; conditions: for killing of intracellular MRSA sequestered inside macrophages: dose range including serum Cmax; for potency at killing intracellular MRSA as free antibiotics: tested as free antibiotics
[2] = clinically achieveable serum levels; cited from earlier work
MRSA (USA300) = assay: intravenous infection model in CB17.SCID mice reconstituted with human IgG (SCID:huIgG); format: in vivo; conditions: twice-daily 100 mg/Kg, treatment initiated more than 1 day post infection
Experimental: To confirm that the AAC would be effective in the presence of competing human antibodies in vivo, the in vivo infection model was modified to generate mice that express normal levels of human IgG in the serum. […] Four days after infection the bacterial load in the kidneys (FIG. 10C) was assessed.
CB17.SCID mice were reconstituted with human IgG using a dosing regimen optimized to yield constant levels of at least 10 mg/mL of human IgG in serum.
Efficacy of the AAC was compared with that of treatment with vancomycin, the current standard of care treatment for MRSA infections. […]
CB17.SCID mice were reconstituted with human IgG using a dosing regimen optimized to yield constant levels of at least 10 mg/mL of human IgG in serum and infected with 2×10^7 CFU of USA300 by intravenous injection. […] The mice were sacrificed on day 4 post infection, and the total number of surviving bacteria in kidneys (2 kidneys pooled, FIG. 21) and heart (FIG. 22) was determined by plating.
Intravenous Infection Model: 7 week old female mice were used for all in vivo experiments and infections were carried out by intravenous injection into the tail vein. […] The total number of bacteria recovered per mouse (2 kidneys) was determined by plating serial dilutions of the tissue homogenate in PBS 0.05% Tween on Tryptic Soy Agar with 5% defibrinated sheep blood.

MRSA [3] = conditions: vancomycin 2 and 20 μg/mL; rifampin 0.02 and 0.2 μg/mL; TSB
USA300 = assay: intravenous infection model in Balb/c mice, pre-treatment; format: in vivo; conditions: antibodies 50 mg/Kg IV 30 minutes prior to infection; vancomycin 110 mg/Kg twice daily IP; day 4
Experimental: Balb/c mice were given a single dose of vehicle control (PBS) or 50 mg/Kg of antibodies by intravenous injection 30 minutes prior to infection with 2×10^7 CFU of USA300. […] Control mice were given twice daily treatments with 110 mg/Kg of vancomycin by intraperitoneal injection (Vanco). All mice were sacrificed on day 4 post-infection, and the total number of surviving bacteria in kidneys (2 kidneys pooled) was determined by plating.
(§1) Intravenous Infection Model: 7 week old female mice were used for all in vivo experiments and infections were carried out by intravenous injection into the tail vein. A/J mice (Jackson Lab) were infected with a dose of 2×10^6 CFU. Balb/c mice (Charles River Laboratories, Hollister, Calif.) were infected with a dose of 2×10^7 CFU. For studies examining the role of competing human IgG (SCID IVIG model), CB17.SCID mice (Charles River Laboratories, Hollister, Calif.) were reconstituted with GammaGard S/D IGIV Immune Globulin (ASD Healthcare, Brooks Ky.) using a dosing regimen optimized to achieve constant serum levels of >10 mg/mL of human IgG. […] The total number of bacteria recovered per mouse (2 kidneys) was determined by plating serial dilutions of the tissue homogenate in PBS 0.05% Tween on Tryptic Soy Agar with 5% defibrinated sheep blood.

MRSA [4] = assay: intravenous infection model in CB17.SCID mice, treatment 1 day after infection; format: in vivo; conditions: AAC 50 mg/Kg or antibiotic 0.5 mg/Kg, 1 day post infection; kidneys day 4
Experimental: One day after infection, the mice were treated with 50 mg/Kg of S4497 antibody, 50 mg/Kg of S4497 dimethyl-pipBOR AAC 105 or with 0.5 mg/Kg of dimethyl-pipBOR antibiotic 7, the equivalent dose of antibiotic that is contained in 50 mg/Kg of AAC). Mice were sacrificed 4 days after infection and the total number of surviving bacteria per mouse (2 kidneys pooled) was determined by plating.
as §1

MRSA (USA300 strain) [5] = assay: intravenous infection model in A/J mice; format: in vivo
Experimental: Efficacy of the AAC in an intravenous infection model was also examined. In this model, S. aureus is taken up by circulating neutrophils shortly after infection such that the majority of bacteria found in blood are associated with host cells within minutes after infection (Rogers, et al (1956) J. Exp. Med. 103:713-742). A/J Mice were infected with 2×10^6 CFU of MRSA by intravenous injection, and then treated with 50 mg/Kg of AACs by intravenous injection 30 minutes post infection. In this model, the primary site of infection is the kidney, and mice develop large abscesses that are detectable by two days post infection and fail to be cleared for up to 30 days in the absence of treatment.
Treatments were delivered by IV injection 30 minutes post infection and kidneys were harvested 4 days post infection. The grey dashed line indicates the limit of detection for each organ.
Efficacy of AAC made with pipBOR and dimethyl-pipBOR antibiotic moieties was compared in vivo in the intravenous infection model in A/J mice. […] Seven week old female A/J Mice were infected with 2×10^6 CFU of MRSA (USA300 strain) by intravenous injection into the tail vein. […] Treatments with S4497 antibody, AAC 102 or AAC 105 were administered at the indicated doses 30 minutes after infection. Mice were sacrificed 4 days after infection and the total number of surviving bacteria per mouse (2 kidneys pooled) was determined by plating.
Intravenous Infection Model: 7 week old female mice were used for all in vivo experiments and infections were carried out by intravenous injection into the tail vein. A/J mice (Jackson Lab) were infected with a dose of 2×10^6 CFU. Balb/c mice (Charles River Laboratories, Hollister, Calif.) were infected with a dose of 2×10^7 CFU. […] The total number of bacteria recovered per mouse (2 kidneys) was determined by plating serial dilutions of the tissue homogenate in PBS 0.05% Tween on Tryptic Soy Agar with 5% defibrinated sheep blood.

MRSA [6] = assay: growth inhibition assay / cathepsin release assay; format: cell-based, S. aureus; conditions: MRSA cultured overnight with up to 10 μg/mL of AAC
Experimental: An AAC comprising antibody rF1, which binds to a family of cell wall associated proteins was conjugated to a rifamycin derivative. S. aureus (Newman strain) was treated with various doses of the rF1-AAC or with equivalent doses of either antibody alone, rifampicin alone or a mixture of antibody and free rifampicin to permit antibody binding to the bacteria (opsonization) and after 1 hour incubation the opsonized bacteria were fed to macrophages (FIG. 7A).
See: page 863 of Dubowchik et al (2002) Bioconj. Chem. 13:855-869, incorporated by reference for the purposes of this assay. Cathepsin B (from bovine spleen, SIGMA C7800) was added at 10 μg/mL and the samples were incubated for 1 hour at 37° C. As a control, AAC were incubated in buffer alone. The reaction was stopped by addition of 10 volumes of bacterial growth media, Tryptic Soy Broth pH 7.4 (TSB). To estimate the total release of active antibiotic, serial dilutions of the reaction mixture were made in quadruplicate in TSB in 96 well plates and the USA300 strain of S. aureus was added to each well at a final density of 2×10^3 CFU/mL. The cultures were incubated over night at […] with shaking and bacterial growth was measured by reading absorbance at 630 nm using a plate reader.

MRSA (USA300 strain) [7] = assay: in vitro macrophage assay (intracellular killing of opsonized MRSA); format: cell-based, S. aureus; conditions: 50 μg/mL; macrophages, osteoblasts (MG63), airway epithelial cells (A549), HUVEC
Experimental: Isolation of Peritoneal Macrophages: Peritoneal macrophages were isolated from the peritoneum of 6-8 week old Balb/c mice (Charles River Laboratories, Hollister, Calif.). To increase the yield of macrophages, mice were pre-treated by intraperitoneal injection with 1 mL of thioglycolate media (Becton Dickinson). The thioglycolate media was prepared at a concentration of 4% in water, sterilized by autoclaving, and aged for 20 days to 6 months prior to use. Peritoneal macrophages were harvested 4 days post treatment with thioglycolate by washing the peritoneal cavity with cold phosphate buffered saline. Macrophages were plated in Dulbecco's Modified Eagle Medium (DMEM) supplemented with 10% Fetal Calf Serum, and 10 mM HEPES, without antibiotics, at a density of 4×10^5 cells/well in 24 well culture dishes. Macrophages were cultured over night to permit adherence to the plate. This assay was also utilized to test intracellular killing in non-phagocytic cell types. […]
Infection of Macrophages with Opsonized MRSA: The USA300 strain of MRSA (NRS384) was obtained from the NARSA repository (Chantilly, Va.). […] Serial dilutions of the lysate were made in phosphate buffered saline solution supplemented with 0.05% Tween-20 (to disrupt aggregates of bacteria) and the total number of surviving intracellular bacteria was determined by plating on Tryptic Soy Agar with 5% defibrinated sheep blood.

CCCCCCCCCC(=O)N[C@@H](Cc1c[nH]c2ccccc12)C(=O)N[C@H](CC(N)=O)C(=O)N[C@@H](CC(=O)O)C(=O)N[C@@H]1C(=O)NCC(=O)N[C@@H](CCCN)C(=O)N[C@@H](CC(=O)O)C(=O)N[C@H](C)C(=O)N[C@@H](CC(=O)O)C(=O)NCC(=O)N[C@H](CO)C(=O)N[C@@H]([C@H](C)CC(=O)O)C(=O)N[C@@H](CC(=O)c2ccccc2N)C(=O)O[C@@H]1C [Daptomycin, daptomycin]
killing of intracellular MRSA sequestered inside macrophages [1]: failed to kill

CC(=O)NC[C@H]1CN(c2ccc(N3CCOCC3)c(F)c2)C(=O)O1 [Linezolid, linezolid]
MIC ([1]; Staphylococcus aureus, MRSA inside mouse peritoneal macrophages, antibiotic added 1 day after infection, survival 24 hours later): > 20 µg/mL
killing of intracellular MRSA sequestered inside macrophages [1]: failed to kill

CN[C@H](CC(C)C)C(=O)N[C@H]1C(=O)N[C@@H](CC(N)=O)C(=O)N[C@H]2C(=O)N[C@H]3C(=O)N[C@H](C(=O)N[C@H](C(=O)O)c4cc(O)cc(O)c4-c4cc3ccc4O)[C@H](O)c3ccc(c(Cl)c3)Oc3cc2cc(c3O[C@@H]2O[C@H](CO)[C@@H](O)[C@H](O)[C@H]2O[C@H]2C[C@](C)(N)[C@H](O)[C@H](C)O2)Oc2ccc(cc2Cl)[C@H]1O [Vancomycin, vancomycin]
Serum Cmax [2]: 10000 to 40000 ng/mL
reduction of bacterial loads (MRSA (USA300)): about 50 fold
killing of intracellular MRSA sequestered inside macrophages [1]: failed to kill
bacteria remaining viable during the first two hours of antibiotic treatment (MRSA [3]): 90%
loss in viable bacteria by 5 hours (MRSA [3]): 100 fold
effect of pre-treatment on bacterial loads in kidneys (USA300): cleared the infection in all of the mice tested

CO[C@H]1/C=C/O[C@@]2(C)Oc3c(C)c(O)c4c(=O)c(c5oc6cc(N7CCC(N(C)C)CC7)cc(O)c6nc-5c4c3C2=O)NC(=O)/C(C)=C\C=C\[C@H](C)[C@H](O)[C@@H](C)[C@@H](O)[C@@H](C)[C@H](OC(C)=O)[C@@H]1C [dimethyl-pipBOR, dimethylpiperidyl benzoxazino rifamycin]
efficacy against established infection (MRSA [4]): failed to clear the infection
potency at killing intracellular MRSA as free antibiotics [1]: more potent than rifampicin

piperidyl benzoxazino rifamycin [pipBOR]
potency at killing intracellular MRSA as free antibiotics [1]: more potent than rifampicin

thio-S4497-HC-A118C-MC-vc-PABC-(pipBOR) [rifa-102]
efficacy at the highest dose (MRSA (USA300 strain) [5]; 50 mg/Kg): effective
efficacy in kidney infection (MRSA (USA300 strain) [5]; 50 mg/Kg IV 30 minutes post infection, kidneys 4 days post infection): cleared the infection in all of the mice tested
efficacy at lower doses (MRSA (USA300 strain) [5]; doses below 50 mg/Kg): only partially efficacious
inhibition of bacterial growth by intact AAC (MRSA [6]): did not result in inhibition of bacterial growth unless the AACs were pre-treated with cathepsin B
intracellular killing of MRSA (MRSA (USA300 strain) [7]): effectively killed
